Reference: patent US20250345492A1, “AN ANTIBACTERIAL POLYPEPTIDE COMPOUND, A MEDICAL DEVICE, HYDROGEL AND USE THEREOF” (priority 2020, published 2025)
In brackets after ≈: the same amount, converted by molar mass. Square brackets hold non-standard residues; d marks the D form. Peptide text beside a SMILES is read from it. Dap = NC[C@H](N)C(=O)O

Tests used:
[1] = tested on: Staphylococcus epidermidis (ATCC 12228); settings: ATCC 12228
Text: (§1) With respect to the determination of antibacterial activity and antifungal activity of the antibacterial polypeptide compounds, the bacterial strains employed included: E. coli (ATCC 25922), E. coli (ATCC 43837), Pseudomonas aeruginosa (ATCC 27853), Klebsiella pneumoniae (ATCC 700603), Cronobacter sakazakii (ATCC 29544), Staphylococcus aureus (ATCC 29213), Bacillus subtilis (ATCC 23857) and Staphylococcus epidermidis (ATCC 12228); and the fungal strains employed included Candida albicans (ATCC 14053), Candida glabrata (ATCC 2001), Candida parapsilosis (ATCC 22019), Candida tropicalis (ATCC 750) and Candida krusei (ATCC 6258), all of which were standard strains from American Type Culture Collection. In addition, drug-resistant strains S-1a, S-2a, S-3a, S-4a, E-1b, E-2b, E-3b, E-4b, E-5b, P-1c, P-2c, P-3c, P-4c, P-5c, and clinically isolated fungal strains Candida glabrata 2-1 and Candida albicans 14-1, 14-2 and 14-3 were employed, all which were clinically isolated.
(§2) Simply, a proper amount of the cryopreserved bacterium or fungus was added to fresh MH/SD medium, and cultured on a shaker overnight at 180 rpm at 37° C. The obtained cells were seeded again and cultured on a shaker for 4-5 hours to obtain cells in logarithmic phase. The resulting cells were added to a 96-well plate (1×10^5 CFU/ml, 100 μL/well), and then 100 μL of polypeptide with different concentrations (1-256 μM) twice the final concentrations was added to corresponding well according to the 2-fold serial dilution method. The fresh medium was used as a negative control, which was prepared in triplicate for each concentration. After dosing, the 96-well plate was placed in an incubator at constant 37° C. and humidity for 12 hours to observe the results. According to naked eye observations, the concentration of the compound in the first transparent well following the turbid wells was recorded as the MIC of the compound, namely, the MIC value of the compound to the bacterium or fungus.

[2] = tested on: Bacillus subtilis (ATCC 23857); settings: ATCC 23857
Text: as §1, §2

[3] = tested on: Cronobacter sakazakii (ATCC 29544); settings: ATCC 29544
Text: as §1, §2

C. glabrata ATCC22019 = settings: ATCC22019
Text: as §1, §2

E. coli (ATCC 25922) = settings: ATCC 25922
Text: as §1, §2

C. krusei ATCC6258 = settings: ATCC6258
Text: as §1, §2

[4] = tested on: Staphylococcus aureus (ATCC 29213); settings: ATCC 29213
Text: as §1, §2

C. albicans ATCC14053 = settings: ATCC14053
Text: as §1, §2

[5] = tested on: Pseudomonas aeruginosa (ATCC 27853); settings: standard strain
Text: as §1, §2

C. parapsilosis ATCC2001 = settings: ATCC2001
Text: as §1, §2

C. tropicalis ATCC750 = settings: ATCC750
Text: as §1, §2

| Compound | MIC S. epidermidis ATCC12228 [1] [µM] | MIC B. subtilis ATCC23857 [2] [µM] | MIC C. sakazakii ATCC29544 [3] [µM] | MIC C. glabrata ATCC22019 (C. glabrata ATCC22019) [µM] | MIC C. coli ATCC25922 (E. coli (ATCC 25922)) [µM] | MIC C. krusei ATCC6258 (C. krusei ATCC6258) [µM] | MIC S. aureus ATCC29213 [4] [µM] | MIC C. albicans ATCC14053 (C. albicans ATCC14053) [µM] | MIC P. aerugmosa ATCC27853 [5] [µM] | MIC C. parapsilosis ATCC2001 (C. parapsilosis ATCC2001) [µM] | MIC C. tropicalis ATCC750 (C. tropicalis ATCC750) [µM] |
| --- | --- | --- | --- | --- | --- | --- | --- | --- | --- | --- | --- |
| CC(C)C[C@H](NC(=O)[C@H](CN)NC(=O)[C@H](CC(C)C)NC(=O)[C@H](CN)NC(=O)[C@H](CC(C)C)NC(=O)[C@H](CN)NC(=O)[C@H](Cc1c[nH]c2ccccc12)NC(=O)[C@@H]1CCCN1)C(N)=O [Compound 11, Pro-Trp-Dap-Leu-Dap-Leu-Dap-Leu-NH2] (H-PW[Dap]L[Dap]L[Dap]L-NH2) | 16 (≈ 14.4 µg/mL) | 16 (≈ 14.4 µg/mL) | 16 (≈ 14.4 µg/mL) | 16 (≈ 14.4 µg/mL) | 16 (≈ 14.4 µg/mL) | 32 (≈ 28.7 µg/mL) | 32 (≈ 28.7 µg/mL) | 64 (≈ 57.5 µg/mL) | 64 (≈ 57.5 µg/mL) | 16 (≈ 14.4 µg/mL) | 16 (≈ 14.4 µg/mL) |
| H-PFKLKLHL-NH2 [Compound 1] | 32 | 32 | 32 | 32 | 32 | 64 | 128 | 32 | 32 | 32 | 32 |
| H-PFRLSLHL-NH2 [Compound 4] | 32 | 16 | 32 | 32 | 32 | 32 | 128 | 32 | 32 | 16 | 32 |
| CC(C)C[C@H](NC(=O)[C@H](CCN)NC(=O)[C@H](CC(C)C)NC(=O)[C@H](CO)NC(=O)[C@H](CC(C)C)NC(=O)[C@H](CCN)NC(=O)[C@H](Cc1c[nH]c2ccccc12)NC(=O)[C@@H]1CCCN1)C(N)=O [Compound 10, Pro-Trp-Dab-Leu-Ser-Leu-Dab-Leu-NH2] (HELM PEPTIDE1{P.W.[Dab].L.S.L.[Dab].L.[am]}$$$$V2.0) | 16 (≈ 14.8 µg/mL) | 16 (≈ 14.8 µg/mL) | 8 (≈ 7.42 µg/mL) | 16 (≈ 14.8 µg/mL) | 16 (≈ 14.8 µg/mL) | 32 (≈ 29.7 µg/mL) | 32 (≈ 29.7 µg/mL) | 32 (≈ 29.7 µg/mL) | 32 (≈ 29.7 µg/mL) | 16 (≈ 14.8 µg/mL) | 8 (≈ 7.42 µg/mL) |
| H-PWRLSLRL-NH2 [Compound 14] | 16 | 8 | 8 | 8 | 8 | 32 | 32 | 8 | 8 | 8 | 8 |
| H-PFRLSLRL-NH2 [Compound 6] | 16 | 16 | 16 | 8 | 8 | 32 | 64 | 32 | 32 | 16 | 16 |
| H-PFRLRLHL-NH2 [Compound 5] | 32 | 16 | 32 | 16 | 16 | 64 | 128 | 16 | 32 | 16 | 32 |
| CC(C)C[C@H](NC(=O)[C@H](CCCCN)NC(=O)[C@H](CC(C)C)NC(=O)[C@H](CCCCN)NC(=O)[C@H](CC(C)C)NC(=O)[C@H](CCN)NC(=O)[C@H](Cc1ccccc1)NC(=O)[C@@H]1CCCN1)C(N)=O [Compound 3, Pro-Phe-Dab-Leu-Lys-Leu-Lys-Leu-NH2] (HELM PEPTIDE1{P.F.[Dab].L.K.L.K.L.[am]}$$$$V2.0) | 16 (≈ 15.3 µg/mL) | 16 (≈ 15.3 µg/mL) | 32 (≈ 30.6 µg/mL) | 32 (≈ 30.6 µg/mL) | 32 (≈ 30.6 µg/mL) | 64 (≈ 61.3 µg/mL) | 128 (≈ 123 µg/mL) | 32 (≈ 30.6 µg/mL) | 32 (≈ 30.6 µg/mL) | 16 (≈ 15.3 µg/mL) | 32 (≈ 30.6 µg/mL) |
| H-PFRLRLRL-NH2 [Compound 7] | 16 | 8 | 32 | 8 | 8 | 32 | 64 | 8 | 8 | 8 | 32 |
| H-PWRLSLHL-NH2 [Compound 12] | 8 | 16 | 16 | 16 | 16 | 32 | 32 | 32 | 32 | 16 | 16 |
